Results on 20 molecules are retold here after PubChem BioAssay AID330 (DTP/NCI, 2004).

For the assay, the system named is P388 leukemia ip, CD2F1 mice, survival T/C. Description: NCI In Vivo Anticancer Drug Screen. Data for tumor model P388 Leukemia (intraperitoneal) in CD2F1 (CDF1) mice. The conditions noted are these: endpoint: median survival time, higher = longer survival. The procedure, abridged: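 Mice carrying the transplanted tumor received test compound or vehicle. Survival was recorded in each group, and the value is the treated-group measurement divided by that of the vehicle-treated control group.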

The mark [1] stands for this setting: dose: 6.25 mg/kg/injection, schedule: Q01DX009 (ip), vehicle: Klucel (hydroxypropylcellulose) (HPC).
Setting [2] is: dose: 12.5 mg/kg/injection, schedule: Q01DX009 (ip), vehicle: Klucel (hydroxypropylcellulose) (HPC).
Setting [3] is: dose: 100.0 mg/kg/injection, schedule: Q01DX001 (ip), vehicle: Klucel (hydroxypropylcellulose) (HPC).
Where [4] appears, read: dose: 200.0 mg/kg/injection, schedule: Q01DX001 (ip), vehicle: Klucel (hydroxypropylcellulose) (HPC).
The mark [5] stands for this setting: dose: 200.0 mg/kg/injection, schedule: Q01DX005 (ip), vehicle: saline with Tween-80.
[6] abbreviates: dose: 400.0 mg/kg/injection, schedule: Q01DX001 (ip), vehicle: Klucel (hydroxypropylcellulose) (HPC).
Setting [7] is: dose: 3.12 mg/kg/injection, schedule: Q01DX005 (ip), vehicle: Klucel (hydroxypropylcellulose) (HPC).
The mark [8] stands for this setting: dose: 6.25 mg/kg/injection, schedule: Q01DX005 (ip), vehicle: Klucel (hydroxypropylcellulose) (HPC).
[9] abbreviates: dose: 60.0 mg/kg/injection, schedule: Q01DX005 (ip), vehicle: saline with Tween-80.
The mark [10] stands for this setting: dose: 120.0 mg/kg/injection, schedule: Q01DX005 (ip), vehicle: saline with Tween-80.
[11] abbreviates: dose: 240.0 mg/kg/injection, schedule: Q01DX005 (ip), vehicle: saline with Tween-80.
Where [12] appears, read: dose: 100.0 mg/kg/injection, schedule: Q01DX009 (ip), vehicle: saline with Tween-80.
Where [13] appears, read: dose: 50.0 mg/kg/injection, schedule: Q01DX005 (ip), vehicle: saline with Tween-80.
Where [14] appears, read: dose: 100.0 mg/kg/injection, schedule: Q01DX005 (ip), vehicle: saline with Tween-80.
The mark [15] stands for this setting: dose: 50.0 mg/kg/injection, schedule: Q01DX005 (ip), vehicle: Klucel (hydroxypropylcellulose) (HPC).
[16] abbreviates: dose: 100.0 mg/kg/injection, schedule: Q01DX005 (ip), vehicle: Klucel (hydroxypropylcellulose) (HPC).
[17] abbreviates: dose: 200.0 mg/kg/injection, schedule: Q01DX005 (ip), vehicle: Klucel (hydroxypropylcellulose) (HPC).

Several values for one entry are separate records, joined by “and”; a condition that tells them apart may be missing. Equal entries are not always repeated. Toxic doses and inconclusive results are not listed.

Turning to `Nc1ccn(C2OC(CCl)C(O)C2O)c(=O)n1` (stereo not drawn), the T/C runs as follows: under setting [1], 101 % of control; under setting [2], 106 % of control; (dose: 100.0 mg/kg/injection, schedule: Q01DX009 (ip), vehicle: Klucel (hydroxypropylcellulose) (HPC)) 172 % of control; (dose: 100.0 mg/kg/injection, schedule: Q01DX009 (ip), vehicle: saline) 154 % of control; (dose: 200.0 mg/kg/injection, schedule: Q01DX009 (ip), vehicle: Klucel (hydroxypropylcellulose) (HPC)) 186 % of control; (dose: 200.0 mg/kg/injection, schedule: Q01DX009 (ip), vehicle: saline) 164 % of control. Also, the T/C (dose: 400.0 mg/kg/injection, schedule: Q01DX009 (ip), vehicle: saline) was 177 % of control.

Regarding `COC(=O)C[C@](O)(CCC(C)(C)O)C(=O)O[C@@H]1C(OC)=C[C@]23CCCN2CCc2cc4c(cc2[C@H]13)OCO4`, the T/C runs as follows: (dose: 0.5 mg/kg/injection, schedule: Q01DX009 (ip), vehicle: saline) 177 % of control; (dose: 1.0 mg/kg/injection, schedule: Q01DX009 (ip), vehicle: saline) 231 % of control.

As to `COc1ccc(C(=O)Cc2cc(OC)c(OC)cc2Br)cc1OC`, the T/C runs as follows: under setting [3], 93 % of control; under setting [4], 101 % of control; under setting [5], 86 % of control; under setting [6], 99 % of control.

Regarding `COc1cc(OC)c(/C=N/Nc2cc(C)nc3cc4c(cc23)OCO4)c(OC)c1`, the T/C was 106 % of control (dose: 1.56 mg/kg/injection, schedule: Q01DX005 (ip), vehicle: Klucel (hydroxypropylcellulose) (HPC)); 97 % of control under setting [7]; 102 % of control and 91 % of control under setting [8]; 100 % of control and 87 % of control (dose: 12.5 mg/kg/injection, schedule: Q01DX005 (ip), vehicle: Klucel (hydroxypropylcellulose) (HPC)); 103 % of control (dose: 25.0 mg/kg/injection, schedule: Q01DX005 (ip), vehicle: Klucel (hydroxypropylcellulose) (HPC)).

With `COC(=O)C(=O)C1CCc2c(C(=O)OC)nc3nnc(N)n3c21` (stereo not drawn), the T/C was 94 % of control under setting [9], 99 % of control under setting [10] and 87 % of control under setting [11].

Consider `CC1(Br)CN([C@@H](C(=O)O)c2ccccc2)C1=O` (stereo partly drawn), for which the T/C was 102 % of control (dose: 50.0 mg/kg/injection, schedule: Q04DX002 (ip), vehicle: saline with Tween-80); 96 % of control (dose: 100.0 mg/kg/injection, schedule: Q04DX002 (ip), vehicle: saline with Tween-80); 93 % of control (dose: 200.0 mg/kg/injection, schedule: Q04DX002 (ip), vehicle: saline with Tween-80); 102 % of control (dose: 400.0 mg/kg/injection, schedule: Q04DX002 (ip), vehicle: saline with Tween-80).

Turning to `CCOC(=O)/C=C/C(=O)NNS(=O)(=O)CCC(NC(=O)OCc1ccccc1)C(=O)OCc1ccccc1` (stereo not drawn), the T/C is, setting by setting: (dose: 12.5 mg/kg/injection, schedule: Q01DX009 (ip), vehicle: other) 92 % of control; (dose: 25.0 mg/kg/injection, schedule: Q01DX009 (ip), vehicle: other) 101 % of control; (dose: 50.0 mg/kg/injection, schedule: Q01DX009 (ip), vehicle: other) 104 % of control; (dose: 100.0 mg/kg/injection, schedule: Q01DX009 (ip), vehicle: other) 93 % of control; (dose: 200.0 mg/kg/injection, schedule: Q01DX009 (ip), vehicle: other) 86 % of control.

Regarding `Cc1nnc2c3nccnc3c(Cl)nn12`, the T/C was 105 % of control (dose: 15.0 mg/kg/injection, schedule: Q01DX005 (ip), vehicle: saline with Tween-80); 112 % of control (dose: 30.0 mg/kg/injection, schedule: Q01DX005 (ip), vehicle: saline with Tween-80); 102 % of control and 105 % of control under setting [9].

As for `CC(C)(C)SC(=O)c1ccco1`, the T/C was 118 % of control (dose: 50.0 mg/kg/injection, schedule: Q01DX009 (ip), vehicle: saline with Tween-80) and 114 % of control under setting [12].

Take `Cc1cc[n+](C2=C(Nc3ccc(Cl)cc3Cl)C(=O)c3ccccc3C2=O)cc1`: the T/C was 99 % of control under setting [9], 106 % of control under setting [10] and 108 % of control under setting [11].

`C=CCN1C(=O)c2cc(Cl)c(Cl)cc2C1=O`: the T/C is 102 % of control under setting [13], 87 % of control under setting [14] and 94 % of control under setting [5].

Consider `C[n+]1c2ccccc2cc2[nH]c3ccccc3c21`, for which, where the note is “dose: 6.25 mg/kg/injection, schedule: Q01DX005 (ip), vehicle: Klucel + Tween-80”, the T/C is 105 % of control.

Take `NC(=O)C1CCCN(C2OC(COP(=O)(O)OP(=O)(O)OCC3OC(n4cnc5c(=O)[nH]c(N)nc54)C(O)C3O)C(O)C2O)C1` (stereo not drawn): the T/C under setting [13] is 100 % of control, the T/C under setting [14] was 104 % of control and the T/C under setting [5] was 100 % of control.

With `CC(=O)Nc1cc2cc(NS(=O)(=O)c3ccc(Cl)c(Cl)c3)ccc2oc1=O`, the T/C under setting [15] was 89 % of control, the T/C under setting [16] was 93 % of control and the T/C under setting [17] was 95 % of control.

For `O=C(Nc1ccc(C2=NCCN2)cc1)C1CCC(C(=O)Nc2ccc(C3=NCCN3)cc2)CC1` (stereo not drawn), the T/C runs as follows: under setting [12], 227 % of control; (dose: 100.0 mg/kg/injection, schedule: Q04DX003 (ip), vehicle: saline with Tween-80) 154 % of control; (dose: 200.0 mg/kg/injection, schedule: Q01DX009 (ip), vehicle: saline with Tween-80) 209 % of control; (dose: 200.0 mg/kg/injection, schedule: Q04DX003 (ip), vehicle: saline with Tween-80) 186 % of control; (dose: 264.0 mg/kg/injection, schedule: Q04DX003 (ip), vehicle: saline with Tween-80) 213 % of control; (dose: 400.0 mg/kg/injection, schedule: Q01DX009 (ip), vehicle: saline with Tween-80) 118 % of control. In addition, the T/C runs as follows: (dose: 400.0 mg/kg/injection, schedule: Q04DX003 (ip), vehicle: saline with Tween-80) 231 % of control and 254 % of control; (dose: 600.0 mg/kg/injection, schedule: Q04DX003 (ip), vehicle: saline with Tween-80) 236 % of control.

With `Nc1n[nH]c(=O)n1N`, the T/C by setting is: under setting [3], 106 % of control; under setting [4], 100 % of control; under setting [6], 107 % of control.

`Cc1cc2nc3c(C4OCC(O)C4O)nn(-c4ccccc4)c3nc2cc1C` (stereo not drawn): the T/C under setting [7] is 93 % of control; the T/C under setting [8] is 88 % of control; the T/C under setting [15] is 88 % of control; the T/C under setting [16] is 93 % of control; the T/C under setting [17] was 103 % of control.

As to `Nc1ncnc2c1ncn2CC(O)CN(CCO)CCO` (stereo not drawn), the T/C by setting is: (dose: 60.0 mg/kg/injection, schedule: Q01DX005 (ip), vehicle: saline) 97 % of control; (dose: 120.0 mg/kg/injection, schedule: Q01DX005 (ip), vehicle: saline) 95 % of control; (dose: 240.0 mg/kg/injection, schedule: Q01DX005 (ip), vehicle: saline) 96 % of control.

Turning to `CN(C)Cc1cnccc1I`, the T/C is 101 % of control (dose: 50.0 mg/kg/injection, schedule: Q01DX005 (ip), vehicle: suspension in saline); 104 % of control (dose: 100.0 mg/kg/injection, schedule: Q01DX005 (ip), vehicle: suspension in saline); 108 % of control (dose: 200.0 mg/kg/injection, schedule: Q01DX005 (ip), vehicle: suspension in saline).

On to `O=C1NC(=O)/C(=C\c2ccco2)S1`, for which the T/C reads like this: under setting [1], 98 % of control; under setting [2], 89 % of control; (dose: 25.0 mg/kg/injection, schedule: Q01DX009 (ip), vehicle: Klucel (hydroxypropylcellulose) (HPC)) 94 % of control.
